Measured values: PMC9866852, “New Chlorinated Metabolites and Antiproliferative Polyketone from the Mangrove Sediments-Derived Fungus Mollisia sp. SCSIO41409” (Marine Drugs, 2022)
Values after ≈ are worked out from the molar mass of the structure shown. Read-outs that look alike come from different tables or passages of the source. Marks after values point to notes of the source that are not given here.

Experiments:
[1] = system: Escherichia coli ATCC 25922; experiment: Antibacterial MIC, twofold serial dilution in 96-well plates; assay type: cell-based; details: ATCC25922, E. coli
[2] = system: Fusarium graminearum schw.; experiment: microbe, parasite or virus in culture; assay type: cell-based; details: read-out: Antifungal MIC
[3] = system: Fusarium oxysporum f.sp. niveum; experiment: Antifungal MIC, twofold serial dilution in 96-well plates; assay type: cell-based
Botrytis cinerea = experiment: Antifungal MIC, twofold serial dilution in 96-well plates; assay type: cell-based; details: B. cinerea
[4] = system: Botrytis cinerea, Verticillium dahlia kieb., Fusarium graminearum schw., Fusarium oxysporum f.sp. niveum, Rhizoctonia solani, Septoria nodorum Berk.; assay type: cell-based; details: range over B. cinerea, V. dahlia, R. solani, S. nodorum
22Rv1 cells = experiment: Cytotoxicity / antiproliferative MTT assay; assay type: cell-based, human; details: read-out: Cytotoxic IC50
Procedure: (§1) Cell viability was analyzed by 3-(4,5)-[…] (MTT) assay as previously described. In brief, cells were seeded in a 96-well plate at a density of 5 × 10^3 per well overnight and treated with compounds for demand time. OD570 values were detected using a Hybrid Multi-Mode Reader (Synergy H1, BioTek, Santa Clara, CA, USA). The experiment was independently repeated three times.

Rhizoctonia solani = experiment: Antifungal MIC, twofold serial dilution in 96-well plates; assay type: cell-based; details: R. solani
[5] = system: Verticillium dahlia kieb.; experiment: as above; assay type: cell-based; details: V. dahlia
PC-3 cells [6] = experiment: Cytotoxicity / antiproliferative MTT assay; assay type: cell-based; details: Homo sapiens, PC-3, PC-3 (androgen receptor negative); read-out: Cytotoxic IC50
Procedure: as §1

Streptococcus suis SC19 = experiment: Antibacterial MIC, twofold serial dilution in 96-well plates; assay type: cell-based; details: S. suis; for MIC: Streptococcus suis, SC19
[7] = system: Erysipelothrix rhusiopathiae WH13013; experiment: as above; assay type: cell-based; details: E. rhusiopathiae; for MIC: Erysipelothrix rhusiopathiae, WH13013
Septoria nodorum Berk. = experiment: Antifungal MIC, twofold serial dilution in 96-well plates; assay type: cell-based; details: Parastagonospora nodorum; S. nodorum
[8] = system: Staphylococcus aureus ATCC 25923; experiment: Antibacterial MIC, twofold serial dilution in 96-well plates; assay type: cell-based; details: S. aureus; for MIC: Staphylococcus aureus, ATCC25923
PC-3 cells [9] = experiment: Apoptosis assay, annexin V-FITC/PI flow cytometry; assay type: cell-based, human; details: 48 h
Source text: (§2) Then, cells were collected and stained with annexin V-FITC and PI solution, following the manufacturer’s manual (BMS500FI-300, Thermo Fisher Scientific, Waltham, MA, USA). Apoptotic rates and cell cycle distribution of PC-3 cells were examined and analyzed by flow cytometer (NovoCyte, Agilent, Santa Clara, CA, USA). Each experiment was repeated three times independently.

[10] = system: HepG2, A549, Hela, WPMY-1, MC3T3-E1 cells; experiment: Antiproliferative MTT assay, summary over other cells; assay type: cell-based; details: range over HepG2, A549, Hela, read-out: IC50 values against other cells
Procedure: as §1

[11] = Cytotoxicity / antiproliferative MTT assay; assay type: cell-based; details: human, WPMY-1 cells, read-out: Cytotoxic IC50
Procedure: as §1

WPMY-1 cells = experiment: Cytotoxicity / antiproliferative MTT assay; assay type: cell-based; details: read-out: Cytotoxic IC50
Procedure: as §1

HepG2 cells = experiment: Cytotoxicity / antiproliferative MTT assay; assay type: cell-based; details: read-out: Cytotoxic IC50
Procedure: as §1

A549 cells = experiment: Cytotoxicity / antiproliferative MTT assay; assay type: cell-based; details: Homo sapiens, read-out: Cytotoxic IC50
Procedure: as §1

Hela cells = experiment: Cytotoxicity / antiproliferative MTT assay; assay type: cell-based; details: Homo sapiens, read-out: Cytotoxic IC50
Procedure: as §1

PC-3 cells [12] = experiment: Plate clone formation assay; assay type: cell-based, human; details: 0.16, 0.32 and 0.64 μM; two weeks
Procedure: The cell clone colony formation was observed after two weeks of treatment. Cells were fixed with 4% formaldehyde for 30 min and washed with PBS buffer, then stained with crystal violet stain solution for 30 min. The dye solution was removed and washed the cells with PBS buffer again. Cell colonies were recorded and analyzed by the colony count analysis system (GelCount, Oxford Optronix, Oxford, UK). The experiment was repeated three times independently.

PC-3 cells [13] = experiment: Cell cycle distribution, flow cytometry; assay type: cell-based, human; details: 48 h
Source text: as §2

human CCR5 receptor = biological target: human CCR5 receptor; parameters: method as in PMID 15217290; details: read-out: IC50, inhibition of binding with human CCR5 receptor; cited from earlier work
[14] = Homo sapiens, 22Rv1, 22Rv1 (androgen receptor positive)

Compound: [H]/N=C(/N)N[C@H]1[C@H](O)[C@@H](O)[C@H](O[C@@H]2O[C@@H](C)[C@](O)(C=O)[C@H]2O[C@@H]2O[C@@H](CO)[C@H](O)[C@@H](O)[C@@H]2NC)[C@@H](N/C(N)=N\[H])[C@@H]1O [Streptomycin, reference compound]
- MIC [1]: 50 µg/mL (≈ 86 µM)

Compound: O=C1NC(=O)C(Cl)=C1Cl [Compound 3, 3,4-dichloro-1H-pyrrole-2,5-dione]
- MIC [2]: 50 µg/mL (≈ 301 µM)
- MIC [3]: 50 µg/mL (≈ 301 µM)
- MIC [1]: > 100 µg/mL
- melting point: 173 to 175 °C
- MIC (Botrytis cinerea): 25 µg/mL (≈ 151 µM)
- MIC values against six fungi [4]: 25 to 50 µg/mL
- IC50 (22Rv1 cells; [14]): 8.35 µM
- MIC (Rhizoctonia solani): 50 µg/mL (≈ 301 µM)
- MIC [5]: 25 µg/mL (≈ 151 µM)
- IC50 (PC-3 cells [6]): 9.6 µM
- MIC (Streptococcus suis SC19): 100 µg/mL (≈ 603 µM)
- MIC [7]: > 100 µg/mL
- MIC (Septoria nodorum Berk.): 25 µg/mL (≈ 151 µM)
- MIC [8]: 100 µg/mL (≈ 603 µM)

Compound: CC=C(C)C(OC(C)=O)C(C)C1=CC(=O)C2=C(OC3(C)CCC4OC(C(C)(C)O)CCC4(C)C3C2)C1=O (stereo not drawn) [Compound 4, stemphone C]
- MIC [2]: > 100 µg/mL
- MIC [3]: > 100 µg/mL
- MIC [1]: > 100 µg/mL
- MIC (Botrytis cinerea): > 100 µg/mL
- Q3-1 quadrant, cells (PC-3 cells [9]; PC-3, 2.5 μM): 3.29%
- Q3-2 quadrant (late apoptosis), cells (PC-3 cells [9]; PC-3, 2.5 μM): 1.02%
- Q3-3 quadrant, cells (PC-3 cells [9]; PC-3, 2.5 μM): 94.52%
- Q3-4 quadrant (early apoptosis), cells (PC-3 cells [9]; PC-3, 2.5 μM): 1.17%
- Q3-1 quadrant, cells (PC-3 cells [9]; PC-3, 5.0 μM): 4.69%
- Q3-2 quadrant (late apoptosis), cells (PC-3 cells [9]; PC-3, 5.0 μM): 4.89%
- Q3-3 quadrant, cells (PC-3 cells [9]; PC-3, 5.0 μM): 83.56%
- Q3-4 quadrant (early apoptosis), cells (PC-3 cells [9]; PC-3, 5.0 μM): 6.86%
- Q3-1 quadrant, cells (PC-3 cells [9]; PC-3, 10.0 μM): 14.56%
- Q3-2 quadrant (late apoptosis), cells (PC-3 cells [9]; PC-3, 10.0 μM): 36.84%
- Q3-3 quadrant, cells (PC-3 cells [9]; PC-3, 10.0 μM): 33.95%
- Q3-4 quadrant (early apoptosis), cells (PC-3 cells [9]; PC-3, 10.0 μM): 14.64%
- IC50 (22Rv1 cells; 22Rv1 (androgen receptor positive)): 5.81 µM
- IC50 (22Rv1 cells; [14]): < 10 µM
- IC50 [10]: 3.63 to 11.7 µM
- MIC (Rhizoctonia solani): > 100 µg/mL
- MIC [5]: > 100 µg/mL
- IC50 [11]: < 10 µM
- IC50 (WPMY-1 cells): 5.53 µM
- IC50 (HepG2 cells; HepG2): 7.11 µM
- IC50 (HepG2 cells; Homo sapiens, HepG2, HepG2): < 10 µM
- IC50 (A549 cells): 11.7 µM
- IC50 (Hela cells): 11.5 µM
- MIC (Streptococcus suis SC19): 6.25 µg/mL (≈ 12.1 µM)
- MIC [7]: 1.56 µg/mL (≈ 3.03 µM)
- MIC (Septoria nodorum Berk.): 50 µg/mL (≈ 97.2 µM)
- Formation of clonal colonies of PC-3 cells (PC-3 cells [12]): significantly inhibited the formation of clonal colonies of PC-3 cells
- Freq S (PC-3 cells [13]; PC-3, 10.0 μM): 59.14%
- MIC [8]: > 100 µg/mL

Compound: Penicillin [reference compound]
- Antibacterial MIC (Streptococcus suis SC19): 1.56 ^b μg/mL
- Antibacterial MIC [7]: 6.25^b μg/mL
- Antibacterial MIC ([7]; listed as penicillin): 6.25 µg/mL
- Antibacterial MIC [8]: 6.25 ^b μg/mL

Compound: CC(C)=CCC[C@H](C)[C@H]1CC[C@]2(C)C[C@H]3[C@H](C(=O)C[C@@]3(C)O)/C(C=O)=C\C[C@@H]12 [Ophiobolin C]
- IC50 (human CCR5 receptor): 40 µM

Compound: C[C@@H]1C[C@@H]([C@H](O)CC2CC(=O)NC(=O)C2)C(=O)[C@@H](C)C1 [Cycloheximide, reference compound]
- MIC [2]: 12.5 µg/mL (≈ 44.4 µM)
- MIC [3]: > 100 µg/mL
- MIC (Botrytis cinerea): 12.5 µg/mL (≈ 44.4 µM)
- MIC (Rhizoctonia solani): 100 µg/mL (≈ 355 µM)
- MIC [5]: 12.5 µg/mL (≈ 44.4 µM)
- MIC (Septoria nodorum Berk.): 12.5 µg/mL (≈ 44.4 µM)

Compound: CC(=O)O[C@@]12CO[C@@H]1C[C@H](O)[C@@]1(C)C(=O)[C@H](O)C3=C(C)[C@@H](OC(=O)[C@H](O)[C@@H](NC(=O)OC(C)(C)C)c4ccccc4)C[C@@](O)([C@@H](OC(=O)c4ccccc4)[C@H]21)C3(C)C [Docetaxel, reference compound]
- Q3-1 quadrant, cells (PC-3 cells [9]; PC-3, 1.0 μM): 5.87%
- Q3-2 quadrant (late apoptosis), cells (PC-3 cells [9]; PC-3, 1.0 μM): 1.68%
- Q3-3 quadrant, cells (PC-3 cells [9]; PC-3, 1.0 μM): 89.89%
- Q3-4 quadrant (early apoptosis), cells (PC-3 cells [9]; PC-3, 1.0 μM): 2.57%
- IC50 (22Rv1 cells; [14]): 0.03 µM
- IC50 [11]: 0.51 µM
- IC50 (PC-3 cells [6]): 0.12 µM
- IC50 (HepG2 cells; Homo sapiens, HepG2, HepG2): 179 µM
- IC50 (A549 cells): 29.9 µM
- Freq G2 (G2/M) (PC-3 cells [13]; PC-3, 1.0 μM): 71.23%
